Laboratory results taken from patent US20240376097A1, “BCL-2 Inhibitor” (BeiGene Ltd., priority 2020, published 2024).
Read-outs that look alike come from different tables or passages of the source.

Assays:
[1] = target: Recombinant human Bcl-2 protein (Homo sapiens (Human), UniProt P10415); assay: Bcl-2 TR-FRET Assay; format: binding
Summary of the method: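 TR-FRET read (337 nm excitation, 520/490 nm emission) after 1 h with 0.5 nM FITC-labeled Bak peptide and Tb-cryptate anti-6His antibody. Bcl-2 at 0.05 nM had been pre-incubated 0.5 h with compound. IC50 fitted by four-parameter logistic equation.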

[2] = target: recombinant human Bcl-2-G101V protein (Homo sapiens (Human), UniProt P10415, G101V); assay: Bcl-2-G101V TR-FRET Assay; format: binding; conditions: Bcl-2 G101V mutant, TR-FRET; read-out: Biochemical assay (IC50, nM) Bcl-2 G101V
Summary of the method: (§1)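 Compounds were titrated at increasing concentrations against the Bcl-2-G101V–ligand interaction. TR-FRET signals were then read (ex 337 nm; em 490/520 nm). Percent inhibition was derived from the 490-to-520 nm ratio, and IC50 from a four-parameter logistic equation.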

[3] = system: recombinant human Bcl-2-G101V protein; assay: Bcl-2-G101V TR-FRET Assay; format: binding; conditions: ratio of biochemical IC50 Bcl-2 G101V / Bcl-2 WT
Summary of the method: as §1

[4] = system: RS4;11 (BCL-2 dependent acute lymphoblastic leukemia cell line); assay: RS4;11 Cell Proliferation Assay; format: cell-based; conditions: Homo sapiens, RS4-11, RS4;11 cells, read-out: Cellular proliferation assay (IC50, nM) RS4
Summary of the method: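 Viability measured via CellTiter-Glo luminescence after a 48 h, 37 °C exposure to compounds (10 points, highest 1 μM). Seeding was 50,000 RS4;11 cells per well in 10% FBS RPMI-1640; IC50 given as mean.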

[5] = system: BCL-2 G101V knock-in cell line H96 (derive from RS4;11); assay: Bcl 2-G101V Knock-In RS4;11 Cell Proliferation Assay; format: cell-based; conditions: Homo sapiens, RS4;11 Bcl-2 G101V knock-in clone H96, 48 hrs, CellTiter-GLO, read-out: Cellular proliferation assay (IC50, nM) RS4
Summary of the method: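 CellTiter-Glo luminescence after 48 h, 37 °C compound treatment (10 concentrations, maximum 1 μM or 10 μM) gave mean IC50 values. Cells were 50,000 per well of H96, a BCL2-G101V knock-in single clone derived from RS4;11 by Cas9 editing.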

[6] = target: recombinant human Bcl-2 D103Y protein (Homo sapiens (Human), UniProt P10415, D103Y); assay: Bcl-2-D103Y Biochemical Assay (TR-FRET); format: binding; conditions: for IC50: TR-FRET, FITC labeled Bak peptide; for Ratio of Bcl-2 D103Y/Bcl-2 WT: ratio of IC50
Summary of the method: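 Compounds titrated against the Bcl-2 D103Y–ligand interaction; inhibition derived from the TR-FRET emission ratio 490 nm/520 nm after 337 nm excitation. Four-parameter logistic fitting gave IC50.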

[7] = Bcl-2 wild type, TR-FRET, read-out: Biochemical assay (IC50, nM) Bcl-2 WT
[8] = wild type Bcl-2, unit inferred, read-out: Bcl-2 WT

| SMILES | IC50 [1, 7] [nM] | IC50 [1, 8] [nM] | IC50 [2] [nM] | Ratio of Bcl-2 G101V/WT [3] | IC50 [4] [nM] | IC50 [5] [nM] | IC50 [6] [pM] | Ratio of Bcl-2 D103Y/Bcl-2 WT [6] | ratio of Bcl-2 D103Y/Bcl-2 wt, compared with F91b in WO2019210828 ([6]; comparison in words) |
| --- | --- | --- | --- | --- | --- | --- | --- | --- | --- |
| COc1ccc(CN2CCN(C3CC4(CCN(c5ccc(C(=O)NS(=O)(=O)c6ccc(NC[C@H]7CC[C@](C)(O)CC7)c([N+](=O)[O-])c6)c(Oc6cnc7[nH]ccc7c6)c5)CC4)C3)C(c3ccccc3C(C)C)C2)c2c1OCCO2 (some centres unmarked) [Example 203, 2-((1H-pyrrolo[2,3-b]pyridin-5-yl)oxy)-N-((4-((((1r,4r)-4-hydroxy-4-methylcyclohexyl)methyl)amino)-3-nitrophenyl)sulfonyl)-4-(2-(2-(2-isopropylphenyl)-4-((8-methoxy-2,3-dihydrobenzo[b][1,4]dioxin-5-yl)methyl)piperazin-1-yl)-7-azaspiro[3.5]nonan-7-yl) benzamide] | 0.052 | 0.052 | 0.17 | 3.2 | 0.38 | 0.9 | 83 | 1.6 |  |
| CC(C)c1ccccc1C1CN(Cc2ccc3sccc3c2)CCN1C1CC2(CCN(c3ccc(C(=O)NS(=O)(=O)c4ccc(NC[C@H]5CC[C@](C)(O)CC5)c([N+](=O)[O-])c4)c(Oc4cnc5[nH]ccc5c4)c3)CC2)C1 (some centres unmarked) [Example 58, 2-((1H-pyrrolo[2,3-b]pyridin-5-yl)oxy)-4-(2-(4-(benzo[b]thiophen-5-ylmethyl)-2-(2-isopropylphenyl)piperazin-1-yl)-7-azaspiro[3.5]nonan-7-yl)-N-((4-((((1r,4r)-4-hydroxy-4-methylcyclohexyl)methyl)amino)-3-nitrophenyl)sulfonyl)benzamide] | 0.62 | 0.62 | 2 | 3.2 | 0.74 | 7.6 | 1800 | 2.9 | significantly lower |
| COc1ccc(CN2CCN(C3CC4(C3)CN(c3ccc(C(=O)NS(=O)(=O)c5ccc(NCC67CC8CC(C6)CC(OC)(C8)C7)c([N+](=O)[O-])c5)c(Oc5cnc6[nH]cc(F)c6c5)c3)C4)[C@H](c3ccccc3C(C)C)C2)cc1 [Example 357, 2-((3-fluoro-1H-pyrrolo[2,3-b]pyridin-5-yl)oxy)-4-(6-((R)-2-(2-isopropylphenyl)-4-(4-methoxybenzyl)piperazin-1-yl)-2-azaspiro[3.3]heptan-2-yl)-N-((4-((((1r,5R,7S)-3-methoxyadamantan-1-yl)methyl)amino)-3-nitrophenyl)sulfonyl) benzamide] | 0.57 | 0.57 | 1.4 | 2.5 | 0.19 | 1 | 1000 | 1.8 |  |
| CC(C)c1ccccc1[C@@H]1CN(Cc2ccnc3c2OCC(C)(C)O3)CCN1C1CC2(C1)CN(c1ccc(C(=O)NS(=O)(=O)c3ccc(NC[C@H]4CC[C@](C)(O)CC4)c([N+](=O)[O-])c3)c(Oc3cnc4[nH]cc(F)c4c3)c1)C2 [Example 317] | 0.033 | 0.033 | 0.12 | 3.6 | 0.19 | 0.43 | 57 | 1.7 |  |
| COc1cc(CN2CCN(C3CC4(C3)CN(c3ccc(C(=O)NS(=O)(=O)c5ccc(NC[C@H]6CC[C@](C)(O)CC6)c([N+](=O)[O-])c5)c(Oc5cnc6[nH]cc(F)c6c5)c3)C4)[C@H](c3ccccc3C(C)C)C2)ccc1N1CC(OC)C1 [Example 359, 2-((3-fluoro-1H-pyrrolo[2,3-b]pyridin-5-yl)oxy)-N-((4-((((1r,4r)-4-hydroxy-4-methylcyclohexyl)methyl)amino)-3-nitrophenyl)sulfonyl)-4-(6-((R)-2-(2-isopropylphenyl)-4-(3-methoxy-4-(3-methoxyazetidin-1-yl)benzyl)piperazin-1-yl)-2-azaspiro[3.3]heptan-2-yl)benzamide] | 0.19 | 0.19 | 0.64 | 3.4 | 0.16 | 0.63 | 440 | 2.4 |  |
